From BindingDB's records for doi:10.1021/acs.jmedchem.5b00570 (Academy of Sciences of The Czech Republic V.V.I., 2015)

How the values were obtained:
[1] = biological target: Glutamate receptor ionotropic, NMDA 1/2D (Homo sapiens, UniProt Q05586+O15399); assay: Inhibition of recombinant GluN1/GluN2D receptor (unknown origin) expressed in HEK293 cells assessed as inhibition of glutamate-evoked current by whole-cell voltage-clamp method
[2] = biological target: Glutamate receptor ionotropic, NMDA 1/2B (Homo sapiens, UniProt Q05586+Q13224); assay: Inhibition of recombinant GluN1/GluN2B receptor (unknown origin) expressed in HEK293 cells assessed as inhibition of glutamate-evoked current by whole-cell voltage-clamp method
[3] = biological target: Glutamate receptor ionotropic, NMDA 1/2C (Homo sapiens, UniProt Q05586+Q14957); assay: Inhibition of recombinant GluN1/GluN2C receptor (unknown origin) expressed in HEK293 cells assessed as inhibition of glutamate-evoked current by whole-cell voltage-clamp method
[4] = biological target: Glutamate receptor ionotropic, NMDA 1/2A (Homo sapiens, UniProt Q12879+Q05586); assay: Inhibition of recombinant GluN1/GluN2A receptor (unknown origin) expressed in HEK293 cells assessed as inhibition of glutamate-evoked current by whole-cell voltage-clamp method
Sequence of Glutamate receptor ionotropic, NMDA 1/2A (Q12879 whole entry, other chains not shown): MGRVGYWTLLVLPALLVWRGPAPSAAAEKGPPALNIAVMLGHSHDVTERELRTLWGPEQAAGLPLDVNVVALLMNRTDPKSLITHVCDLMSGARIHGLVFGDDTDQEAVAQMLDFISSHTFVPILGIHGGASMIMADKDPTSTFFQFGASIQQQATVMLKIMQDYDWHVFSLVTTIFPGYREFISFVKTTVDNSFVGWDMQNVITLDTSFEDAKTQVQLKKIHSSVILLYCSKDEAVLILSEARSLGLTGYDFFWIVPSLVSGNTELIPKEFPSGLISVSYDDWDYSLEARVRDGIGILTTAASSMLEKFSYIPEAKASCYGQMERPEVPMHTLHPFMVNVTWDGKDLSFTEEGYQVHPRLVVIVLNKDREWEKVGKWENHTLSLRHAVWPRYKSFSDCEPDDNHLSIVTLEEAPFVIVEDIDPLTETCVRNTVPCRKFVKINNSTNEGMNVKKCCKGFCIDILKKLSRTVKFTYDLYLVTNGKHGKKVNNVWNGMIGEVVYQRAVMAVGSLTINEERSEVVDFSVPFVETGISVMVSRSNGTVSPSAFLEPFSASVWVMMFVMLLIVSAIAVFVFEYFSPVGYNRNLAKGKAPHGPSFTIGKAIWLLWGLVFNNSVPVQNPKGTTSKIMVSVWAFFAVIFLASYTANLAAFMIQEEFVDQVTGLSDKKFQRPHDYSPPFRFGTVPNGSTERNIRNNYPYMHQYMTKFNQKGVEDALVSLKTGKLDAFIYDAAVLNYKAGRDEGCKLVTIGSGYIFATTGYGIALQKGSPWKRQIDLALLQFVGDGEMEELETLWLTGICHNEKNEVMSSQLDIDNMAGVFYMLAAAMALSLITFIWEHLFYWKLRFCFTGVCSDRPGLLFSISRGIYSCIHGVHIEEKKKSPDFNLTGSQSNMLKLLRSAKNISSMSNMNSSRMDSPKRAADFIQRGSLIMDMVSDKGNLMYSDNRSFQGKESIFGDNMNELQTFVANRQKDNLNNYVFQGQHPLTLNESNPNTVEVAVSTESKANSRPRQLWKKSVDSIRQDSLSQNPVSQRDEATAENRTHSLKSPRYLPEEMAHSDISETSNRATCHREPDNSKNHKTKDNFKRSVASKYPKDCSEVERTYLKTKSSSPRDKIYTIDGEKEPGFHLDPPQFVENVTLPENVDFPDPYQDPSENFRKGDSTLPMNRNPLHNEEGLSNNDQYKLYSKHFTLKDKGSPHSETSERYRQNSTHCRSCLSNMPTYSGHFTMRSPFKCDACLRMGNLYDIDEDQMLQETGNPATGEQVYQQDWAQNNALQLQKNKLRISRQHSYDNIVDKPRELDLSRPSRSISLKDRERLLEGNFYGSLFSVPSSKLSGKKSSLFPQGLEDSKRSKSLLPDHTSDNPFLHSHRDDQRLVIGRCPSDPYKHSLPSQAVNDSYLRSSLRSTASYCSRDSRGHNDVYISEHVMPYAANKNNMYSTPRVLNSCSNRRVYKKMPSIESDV

Sequence of Glutamate receptor ionotropic, NMDA 1/2B (Q13224 whole entry, other chains not shown): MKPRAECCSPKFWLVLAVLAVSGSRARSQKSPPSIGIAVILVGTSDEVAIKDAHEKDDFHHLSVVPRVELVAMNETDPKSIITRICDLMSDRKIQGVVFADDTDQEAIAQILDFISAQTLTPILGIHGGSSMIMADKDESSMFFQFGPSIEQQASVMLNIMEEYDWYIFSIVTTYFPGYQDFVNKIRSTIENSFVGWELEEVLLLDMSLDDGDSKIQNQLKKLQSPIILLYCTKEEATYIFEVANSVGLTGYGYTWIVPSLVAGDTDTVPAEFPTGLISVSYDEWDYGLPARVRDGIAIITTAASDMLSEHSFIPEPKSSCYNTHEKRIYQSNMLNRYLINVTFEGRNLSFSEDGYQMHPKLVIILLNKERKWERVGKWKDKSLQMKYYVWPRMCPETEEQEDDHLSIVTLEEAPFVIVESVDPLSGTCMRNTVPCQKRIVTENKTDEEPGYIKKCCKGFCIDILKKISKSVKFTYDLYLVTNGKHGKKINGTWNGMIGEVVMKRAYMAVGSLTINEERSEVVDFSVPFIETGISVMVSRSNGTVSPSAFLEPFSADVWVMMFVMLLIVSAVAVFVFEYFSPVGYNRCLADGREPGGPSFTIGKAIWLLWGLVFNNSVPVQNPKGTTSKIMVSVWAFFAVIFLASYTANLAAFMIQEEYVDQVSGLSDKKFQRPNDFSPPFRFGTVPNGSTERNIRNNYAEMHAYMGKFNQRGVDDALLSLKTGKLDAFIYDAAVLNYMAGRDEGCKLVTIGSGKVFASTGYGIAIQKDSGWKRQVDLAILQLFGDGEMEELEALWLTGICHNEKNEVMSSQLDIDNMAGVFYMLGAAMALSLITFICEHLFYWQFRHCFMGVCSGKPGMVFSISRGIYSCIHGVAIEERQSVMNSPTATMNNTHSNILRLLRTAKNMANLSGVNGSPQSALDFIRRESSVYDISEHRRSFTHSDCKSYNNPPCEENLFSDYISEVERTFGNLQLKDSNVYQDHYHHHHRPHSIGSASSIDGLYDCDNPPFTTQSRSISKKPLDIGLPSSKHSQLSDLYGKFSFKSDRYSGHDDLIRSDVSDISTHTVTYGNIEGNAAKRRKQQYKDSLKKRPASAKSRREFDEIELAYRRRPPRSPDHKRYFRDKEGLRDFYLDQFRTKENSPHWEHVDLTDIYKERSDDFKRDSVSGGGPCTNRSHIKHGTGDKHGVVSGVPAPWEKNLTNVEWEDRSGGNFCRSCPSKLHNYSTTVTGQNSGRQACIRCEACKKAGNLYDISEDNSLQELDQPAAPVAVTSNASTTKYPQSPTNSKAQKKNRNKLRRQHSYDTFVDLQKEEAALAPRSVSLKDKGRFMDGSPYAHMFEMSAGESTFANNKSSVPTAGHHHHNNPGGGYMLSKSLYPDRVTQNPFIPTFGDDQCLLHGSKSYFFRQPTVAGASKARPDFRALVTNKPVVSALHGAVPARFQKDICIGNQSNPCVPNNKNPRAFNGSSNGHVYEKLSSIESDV
Sequence of Glutamate receptor ionotropic, NMDA 1/2C (Q14957 whole entry, other chains not shown): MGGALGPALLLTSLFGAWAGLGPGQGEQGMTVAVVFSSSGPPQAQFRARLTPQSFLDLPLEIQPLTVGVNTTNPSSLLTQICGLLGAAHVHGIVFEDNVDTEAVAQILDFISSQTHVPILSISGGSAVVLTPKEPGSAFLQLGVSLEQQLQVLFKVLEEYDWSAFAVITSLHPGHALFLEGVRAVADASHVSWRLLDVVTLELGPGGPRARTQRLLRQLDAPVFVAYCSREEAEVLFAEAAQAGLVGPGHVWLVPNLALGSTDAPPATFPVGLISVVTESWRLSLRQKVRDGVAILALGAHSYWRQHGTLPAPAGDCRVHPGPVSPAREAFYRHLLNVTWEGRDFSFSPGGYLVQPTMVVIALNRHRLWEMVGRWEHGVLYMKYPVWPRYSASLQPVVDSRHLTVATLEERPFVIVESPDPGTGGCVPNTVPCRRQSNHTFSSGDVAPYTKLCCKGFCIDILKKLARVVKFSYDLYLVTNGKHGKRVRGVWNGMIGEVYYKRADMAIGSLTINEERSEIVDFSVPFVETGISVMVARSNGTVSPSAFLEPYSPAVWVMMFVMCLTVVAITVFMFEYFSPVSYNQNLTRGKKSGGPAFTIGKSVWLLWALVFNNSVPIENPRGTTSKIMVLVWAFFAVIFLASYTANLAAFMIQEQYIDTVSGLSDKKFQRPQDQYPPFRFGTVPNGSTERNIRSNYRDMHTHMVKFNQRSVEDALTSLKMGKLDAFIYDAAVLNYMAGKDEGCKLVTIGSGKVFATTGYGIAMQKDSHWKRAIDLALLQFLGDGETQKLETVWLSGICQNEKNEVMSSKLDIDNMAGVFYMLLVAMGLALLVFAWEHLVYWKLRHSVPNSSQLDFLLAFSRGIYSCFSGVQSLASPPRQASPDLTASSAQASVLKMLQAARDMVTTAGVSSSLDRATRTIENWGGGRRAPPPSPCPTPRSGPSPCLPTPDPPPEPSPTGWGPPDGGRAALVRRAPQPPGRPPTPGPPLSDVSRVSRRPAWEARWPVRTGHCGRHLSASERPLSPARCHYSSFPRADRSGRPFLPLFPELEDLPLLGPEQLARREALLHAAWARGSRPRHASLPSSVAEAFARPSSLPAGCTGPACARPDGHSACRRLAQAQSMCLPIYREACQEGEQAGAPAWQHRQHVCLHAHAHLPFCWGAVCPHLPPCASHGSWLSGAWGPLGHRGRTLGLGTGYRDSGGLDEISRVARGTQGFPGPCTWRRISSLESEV

Work on `C[C@H]1CC[C@H]2[C@@H]3CC[C@@H]4C[C@H](OS(=O)(=O)O)CC[C@]4(C)[C@H]3CC[C@]12C` yielded an IC50 [1] of 500 nM, an IC50 [2] of 600 nM and an IC50 [3] of 400 nM. The IC50 [4] was 600 nM.
